Assay results: US7642058B2, “Method and apparatus for characterization of interactions” (GE Healthcare Bio-Sciences AB, priority 2003, dated 2010)

Assays:
[1] = target: HSA (Homo sapiens, UniProt P02768)
[2] = target: anti-maltose antibody; assay: Pulse injection SPR steady state affinity, maltose on immobilized anti-maltose antibody; conditions: read-out: average KD; pulse injection method, 25° C., initial concentrations 0.05 and 0.1 mM
Method: Roughly the same amount of another antibody, anti-AFP, was immobilized in a reference flowcell in order to minimise errors in reference subtraction due to the high immobilization level. These two proteins were immobilized using the “amine coupling” procedure as follows: HBS-EP was used as running buffer with a constant flow rate of 5 μl/min. After activation for 12 min. with EDC, target (anti-maltose or anti-AFP, 50 μg/ml in 10 mM sodium acetate, pH 5.0) was injected for 7 min., followed by a 12-min. deactivation. Immobilization and all measurements on the surface were performed at 25° C.
Samples of different initial concentrations (0.05 and 0.1 mM) were injected over the surface. The association and dissociation phases of each pulse were 12 seconds. […] Each experiment started with a blank run, i.e., a series of pulses of running buffer alone. The concentration of the first pulse, C1, was assumed to be equal to the concentration in the vial. […]
Response levels were obtained by taking the average of 10 data points at equilibrium. […] The constant multi-concentration pulse series were evaluated with a non-linearly fitted Req versus C plot, whereby KA, KD and Rmax values were obtained directly from the software.

[3] = target: anti-maltose antibody; assay: Conventional SPR affinity assay, maltose on immobilized anti-maltose antibody; type: binding; conditions: 12 injections 0 to 1500 μM, 25° C.
Method: In order to compare the results obtained with pulse injections to results obtained with the conventional method, 12 maltose injections of concentrations ranging from 0 to 1500 μM were performed. The injection time was 15 sec. Data was evaluated from a Req versus C plot using the BIAevaluation software.

Sequence of HSA (P02768 25-609 limits assumed): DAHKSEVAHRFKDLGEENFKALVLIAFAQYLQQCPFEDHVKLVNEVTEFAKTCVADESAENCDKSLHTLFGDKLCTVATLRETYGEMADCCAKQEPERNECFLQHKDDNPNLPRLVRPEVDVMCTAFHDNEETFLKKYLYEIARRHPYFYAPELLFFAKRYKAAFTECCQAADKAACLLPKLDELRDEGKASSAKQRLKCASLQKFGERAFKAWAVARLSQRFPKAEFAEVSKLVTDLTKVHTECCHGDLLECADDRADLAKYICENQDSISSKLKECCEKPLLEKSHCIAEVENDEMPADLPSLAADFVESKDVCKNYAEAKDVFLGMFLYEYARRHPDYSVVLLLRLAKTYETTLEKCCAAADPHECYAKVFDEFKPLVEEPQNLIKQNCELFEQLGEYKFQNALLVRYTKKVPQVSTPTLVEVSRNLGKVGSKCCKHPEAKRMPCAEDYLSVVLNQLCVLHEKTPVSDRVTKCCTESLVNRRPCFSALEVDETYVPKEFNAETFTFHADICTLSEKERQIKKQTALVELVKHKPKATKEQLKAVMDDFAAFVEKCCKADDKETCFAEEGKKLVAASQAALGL

Kd [2] [mM]	Kd [3] [mM]	SMILES	site competition on HSA, pair digitoxin and warfarin [1]
		C[C@H]1O[C@@H](O[C@H]2[C@@H](O)C[C@H](O[C@H]3[C@@H](O)C[C@H](O[C@H]4CC[C@@]5(C)[C@H](CC[C@@H]6[C@@H]5CC[C@]5(C)[C@@H](C7=CC(=O)OC7)CC[C@]65O)C4)O[C@@H]3C)O[C@@H]2C)C[C@H](O)[C@@H]1O [Digitoxin, digitoxin]	non-competitive binders
9	8.5	OC[C@H]1O[C@H](O[C@H]2[C@H](O)[C@@H](O)C(O)O[C@@H]2CO)[C@H](O)[C@@H](O)[C@@H]1O (mixture of isomers) [maltose]	
